Measured values as given in ChEMBL document CHEMBL4024756, “Identification of 4-Phenoxyquinoline Based Inhibitors for L1196M Mutant of Anaplastic Lymphoma Kinase by Structure-Based Design” (J Med Chem, 2017).

Columns and labels:
[1] = Oral bioavailability in rat at 10 mg/kg; assay type: ADME, organism-based; conditions: in vivo
[2] = Tmax in rat at 1 mg/kg, iv; assay type: ADME, organism-based; conditions: in vivo
[3] = AUClast in rat at 10 mg/kg, po; assay type: ADME, organism-based; parameters: dose 10 mg/kg, time 0 - last, route oral; conditions: in vivo
[4] = Tmax in rat at 10 mg/kg, po; assay type: ADME, organism-based; conditions: in vivo
[5] = Half life in rat at 1 mg/kg, iv; assay type: ADME, organism-based; conditions: in vivo
[6] = Cmax in rat at 10 mg/kg, po; assay type: ADME, organism-based; parameters: dose 10 mg/kg, route oral; conditions: in vivo
[7] = AUClast in rat at 1 mg/kg, iv; assay type: ADME, organism-based; parameters: dose 1 mg/kg, time 0 - last, route intravenous; conditions: in vivo
[8] = Cmax in rat at 1 mg/kg, iv; assay type: ADME, organism-based; parameters: dose 1 mg/kg, route intravenous; conditions: in vivo
[9] = target: Voltage-gated inwardly rectifying potassium channel KCNH2 (Homo sapiens, UniProt Q12809); assay: Inhibition of human ERG by fluorescently labeled tracer binding method
Chain of Voltage-gated inwardly rectifying potassium channel KCNH2 (Q12809 whole entry): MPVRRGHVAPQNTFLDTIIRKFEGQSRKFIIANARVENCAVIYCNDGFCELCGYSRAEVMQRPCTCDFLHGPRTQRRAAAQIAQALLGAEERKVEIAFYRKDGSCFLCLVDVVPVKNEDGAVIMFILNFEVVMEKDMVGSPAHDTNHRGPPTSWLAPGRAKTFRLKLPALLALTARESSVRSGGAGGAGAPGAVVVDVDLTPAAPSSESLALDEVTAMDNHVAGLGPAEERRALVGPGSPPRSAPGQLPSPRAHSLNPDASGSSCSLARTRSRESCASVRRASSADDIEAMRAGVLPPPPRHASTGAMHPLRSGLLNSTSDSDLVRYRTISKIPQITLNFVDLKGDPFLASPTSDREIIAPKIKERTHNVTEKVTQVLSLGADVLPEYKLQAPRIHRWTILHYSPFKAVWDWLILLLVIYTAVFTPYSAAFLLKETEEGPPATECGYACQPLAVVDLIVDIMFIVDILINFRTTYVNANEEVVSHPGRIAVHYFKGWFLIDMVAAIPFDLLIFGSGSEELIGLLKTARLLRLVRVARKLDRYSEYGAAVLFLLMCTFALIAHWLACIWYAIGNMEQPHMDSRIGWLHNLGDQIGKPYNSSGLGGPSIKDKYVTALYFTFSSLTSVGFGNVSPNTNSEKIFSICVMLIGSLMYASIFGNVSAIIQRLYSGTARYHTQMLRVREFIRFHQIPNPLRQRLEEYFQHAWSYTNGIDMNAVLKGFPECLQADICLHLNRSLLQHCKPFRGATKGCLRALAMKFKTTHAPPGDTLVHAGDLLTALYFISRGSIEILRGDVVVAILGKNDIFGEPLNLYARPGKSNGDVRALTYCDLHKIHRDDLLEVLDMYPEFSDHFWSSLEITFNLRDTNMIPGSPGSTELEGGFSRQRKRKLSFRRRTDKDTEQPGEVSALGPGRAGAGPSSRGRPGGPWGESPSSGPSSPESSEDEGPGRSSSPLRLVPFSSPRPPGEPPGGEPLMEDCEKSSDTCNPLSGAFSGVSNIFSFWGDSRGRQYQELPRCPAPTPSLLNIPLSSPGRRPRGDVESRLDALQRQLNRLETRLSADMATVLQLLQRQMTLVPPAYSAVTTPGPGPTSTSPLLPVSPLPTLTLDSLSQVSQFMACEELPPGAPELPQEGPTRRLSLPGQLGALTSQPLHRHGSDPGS

[10] = Antiproliferative activity against human H2228/CR cells after 72 hrs by MTT assay; conditions: NCI-H2228, 72 h
NCI-H2228 = assay: Antiproliferative activity against human NCI-H2228 cells after 72 hrs by MTT assay; conditions: NCI-H2228, 72 h

Row | bioavailability [1] | Tmax [2] | AUC(0-t) [3] | Tmax [4] | half-life [5] | Cmax [6] | AUC(0-t) [7] | Cmax [8] | IC50 (NCI-H2228) | SMILES | IC50 [9] | IC50 [10]
1 | 24.8% | 6 min | 384 ng·h/mL | 6 h | 3.5 h | 78.4 ng/mL | 155 ng·h/mL | 83.5 ng/mL | – | Oc1ccc(Oc2ccnc3cc(-c4cnn(C5CCNCC5)c4)ccc23)cc1 | – | –
2 | 45.5% | 6 min | 437 ng·h/mL | 4 h | 10.7 h | 83.9 ng/mL | 95.9 ng·h/mL | 48.9 ng/mL | – | COc1ccc(Oc2ccnc3cc(-c4cnn(C5CCNCC5)c4)ccc23)cc1 | 2460 nM | –
3 | – | – | – | – | – | – | – | – | 2500 nM | C[C@@H](Oc1cc(-c2cnn(C3CCNCC3)c2)cnc1N)c1c(Cl)ccc(F)c1Cl [CRIZOTINIB] | – | 10000 nM

Row | SMILES | bioavailability [1] | Tmax [2] | AUC(0-t) [3] | Tmax [4] | half-life [5] | Cmax [6] | AUC(0-t) [7] | Cmax [8] | IC50 (NCI-H2228) | IC50 [9] | IC50 [10]
4 | Cc1ccc(Oc2ccnc3cc(-c4cnn(C5CCNCC5)c4)ccc23)cc1 | 44.8% | 6 min | 745 ng·h/mL | 4 h | 3.3 h | 131 ng/mL | 166 ng·h/mL | 94.1 ng/mL | – | – | –
